Square brackets hold non-standard residues; d marks the D form. Ends that are not written are not given here. Peptide text beside a SMILES is read from it. * marks the point of attachment. Acetyl(2-naphthyl) = O=C(Cc1ccc2ccccc2c1)*
Columns and labels:
[1] = tested on: human dental pulp cells (HDPCs); format: cell-based
Description: The HDPCs (1 × 10^5 cells/well) in the six well plates were treated with basal medium, AMG-P8, L-gel, D-gel, EMPs for 21 days. After fixed in the 4% paraformaldehyde for 15 min, the mineralized nodules were stained with 1% Alizarin Red (Solarbio, Beijing, China) for 10 min and washed in double-distilled water to eliminate floating colors. Images were captured with a Ti-S microscope (Nikon, Japan). For quantitative analysis of calcified nodules, 10% cetylpyridinium chloride (CPC; Sigma, USA) was used to dissolve Alizarin red. One milliliter of 10% CPC per well was added and shook for 30 min. The absorbance value was measured at 560 nm using a multifunctional microplate reader (Tecan Ltd., Männedorf, Switzerland).

[2] = Proteinase K stability (compound remaining); format: in vitro ADME; details: Tritirachium album (source organism of proteinase K); initial concentration 1.0 mM, 0.1 mg/ml proteinase K, 24 h; read-out: compound remaining after 24 h
Description: (§1) Both Nap-GFFY-G-KWYQNMIR (Comp. 1) and Nap-G^DF^DF^DY-G-KWYQNMIR (Comp. 2) could form hydrogels by heating and cooling, namely L-gel and D-gel (Fig. 1A–C). The ultrastructures of the L-gel and D-gel were both nanofibers (Fig. 1D and E). The mechanical properties of the L-gel and D-gel remained relatively constant (Fig. 1F and G). […] The CAC values of the AMG-P8, L-gel and D-gel were 354.91, 84.25 and 86.62 μM, respectively (Fig. 1I and J). […] That was the result of an initial concentration of 1.0 mM AMG-P8 incubated with 0.1 mg/ml of proteinase K for 24 h, whereas the L-gel and D-gel still retained 62.21% and 78.06% of the compound, respectively, after 24 h (Fig. 1K).
(§2) Figure 1. Chemical structures of (A) AMG-P8 (KWYQNMIR); (B) Comp.1 (Nap-GFFYGKWYQNMIR) and (C) Comp.2 (Nap-G^DF^DF^DYGKWYQNMIR). TEM and optical images of (D) L-gel and (E) D-gel. Dynamic frequency and strain sweep measurements of L-gel and D-gel (F, G). (H) Circular dichroism spectra of L-gel and D-gel. Determination of CAC values of L-gel (I) and D-gel (J). (K) Compound remaining of the AMG-P8, L-gel and D-gel for an initial concentration of 1.0 mM incubated with 0.1 mg/ml of proteinase K for 24 h. TEXT PRINTED IN THE PICTURE: (I) L- gel: CAC=84.25 μM | (J) D- gel: CAC=86.62 μM DOUBTS OF THE COPYIST ABOUT THIS PICTURE: L- gel, CAC: small print, 84.25 could be 84.26 or 64.25 / D- gel, CAC: small print, 86.62 could be 88.62 or 86.82

[3] = tested on: MAPK-ERK1/2 pathways in HDPCs; assay: Western blot of phospho-ERK1/2 in HDPCs; format: cell-based, human; details: 10 µM inhibitor pretreatment 1 h then D-gel 1 h, P < 0.05, in words
Description: The HDPCs (2 × 10^5) were treated under different conditions for different time points. The EMPs (1 µM) were also added to the HDPCs as an extra control group. Then the cells were harvested and lysed in 200 µL lysis buffer (Beyotime, Shanghai, China) and centrifuged (12 000 rpm for 10 min, at 4°C). The protein concentration was evaluated with a BCA kit (Solarbio, Beijing, China). The protein was mixed with 5× loading buffer and heated at 95°C for 5 min, separated by precast PAGE gel (Beyotime, Shanghai, China) and transferred to polyvinylidene fluoride membranes. After blocked at room temperature for 15 min, then incubated with the primary antibody (DSPP, DMP-1, Smad2/3, c jun, p-c jun, c fos, p-c fos, c jun B) (Santa Cruz, California, USA), [p-ERK1/2, ERK1/2, alkaline phosphatase (ALP), p-Smad2/3, GAPDH] (Beyotime, Shanghai, China). Then, the membranes were incubated with the goat anti-rabbit IgG-HRP secondary antibody or goat anti-mouse IgG-HRP secondary antibody for 1 h, respectively. Then, an ultrasensitive chemiluminescence kit (Beyotime, Shanghai, China) was used to detect the protein bands. A chemiluminescence imager (Bio-Rad, California, USA) was used to scan the protein bands. The Image Lab software was used to analyze the relative protein expression levels. […]

[4] = tested on: human dental pulp cells (HDPCs); assay: Western blot of DSPP, DMP-1 and ALP in HDPCs; format: cell-based; details: D-gel and U0126 for 7 and 14 days, P < 0.05, in words
Description: The healthy premolars and third molars extracted for orthodontic or other reasons were collected from patients (14–22 years old) visited Tianjin Stomatological Hospital. This study had been approved by the Ethics Committee of Tianjin Stomatological Hospital (Approval number: 2018012). The informed consent was obtained from each patient. The dental pulp tissue was dissected within 4 h after tooth extraction, minced into 1 mm^3 pieces with sterile scissors and transferred to a cell culture flask containing alpha-modified Eagle’s medium (α-MEM, Gibco, California, USA) supplemented with 10% fetal bovine serum (FBS, Gibco, New York, NY, USA), 100 U/ml penicillin and 100 μg/ml streptomycin (PS, Sigma, California, USA). The cells were cultured in a 5% CO2 incubator at 37°C. The HDPCs at 3–4 passage were used in this study.
The HDPCs (2 × 10^5) were treated under different conditions for different time points. The EMPs (1 µM) were also added to the HDPCs as an extra control group. Then the cells were harvested and lysed in 200 µL lysis buffer (Beyotime, Shanghai, China) and centrifuged (12 000 rpm for 10 min, at 4°C). The protein concentration was evaluated with a BCA kit (Solarbio, Beijing, China). The protein was mixed with 5× loading buffer and heated at 95°C for 5 min, separated by precast PAGE gel (Beyotime, Shanghai, China) and transferred to polyvinylidene fluoride membranes. […]

[5] = Solubility of the peptide; format: physicochemical; details: in words
proteinase K = proteinase K (Parengyodontium album, UniProt P06873); assay: Proteinase K stability (compound remaining); format: in vitro ADME; details: initial concentration 1.0 mM, 0.1 mg/ml proteinase K
Description: as §1, §2

Sequence of proteinase K (P06873 106-384, species assumed): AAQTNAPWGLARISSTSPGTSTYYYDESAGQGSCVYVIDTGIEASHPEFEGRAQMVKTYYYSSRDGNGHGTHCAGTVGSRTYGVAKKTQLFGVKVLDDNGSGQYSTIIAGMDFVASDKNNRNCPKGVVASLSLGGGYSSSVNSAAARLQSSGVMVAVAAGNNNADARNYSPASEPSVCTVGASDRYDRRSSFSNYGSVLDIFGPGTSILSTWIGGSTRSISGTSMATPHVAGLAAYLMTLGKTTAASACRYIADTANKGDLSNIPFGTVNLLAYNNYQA

In the case of `CC[C@H](C)[C@H](NC(=O)[C@H](CCSC)NC(=O)[C@H](CC(N)=O)NC(=O)[C@H](CCC(N)=O)NC(=O)[C@H](Cc1ccc(O)cc1)NC(=O)[C@H](Cc1c[nH]c2ccccc12)NC(=O)[C@H](CCCCN)NC(=O)CNC(=O)[C@@H](Cc1ccc(O)cc1)NC(=O)[C@@H](Cc1ccccc1)NC(=O)[C@@H](Cc1ccccc1)NC(=O)CNC(=O)Cc1ccc2ccccc2c1)C(=O)N[C@@H](CCCNC(=N)N)C(=O)O` [D-gel] ({Acetyl(2-naphthyl)}-G[dF][dF][dY]GKWYQNMIR-OH), the “Alizarin red OD value as percent of the EMPs group” value [1] is reported as “about 80%” and the remaining at 24 h, 1 mM [2] is reported as 78.1%.

In the case of `CC[C@H](C)[C@H](NC(=O)[C@H](CCSC)NC(=O)[C@H](CC(N)=O)NC(=O)[C@H](CCC(N)=O)NC(=O)[C@H](Cc1ccc(O)cc1)NC(=O)[C@H](Cc1c[nH]c2ccccc12)NC(=O)[C@H](CCCCN)NC(=O)CNC(=O)[C@H](Cc1ccc(O)cc1)NC(=O)[C@H](Cc1ccccc1)NC(=O)[C@H](Cc1ccccc1)NC(=O)CNC(=O)Cc1ccc2ccccc2c1)C(=O)N[C@@H](CCCNC(=N)N)C(=O)O` [L-gel] ({Acetyl(2-naphthyl)}-GFFYGKWYQNMIR-OH), the remaining at 24 h, 1 mM [2] is reported as 62.2%.

For `N#CC(=C(/N)Sc1ccccc1N)/C(C#N)=C(/N)Sc1ccccc1N` [U0126], the “effect on D-gel-induced phospho-ERK1/2 upregulation” value [3] was “specifically blocked” and the “effect on D-gel-induced expression of DSPP and ALP” value [4] was “suppressed”.

With KWYQNMIR [AMG-P8] the solubility [5] was “good solubility” and the “time within which the peptide was hydrolyzed” value (proteinase K) was ≤ 30 min.

Source: article PMC9348551, “An amelogenin-based peptide hydrogel promoted the odontogenic differentiation of human dental pulp cells” (Regenerative Biomaterials, 2022)
